Data from patent US9458220B2 (priority 2010, dated 2016).
Like-named read-outs stand apart in the source and are kept apart here. Primed or numbered codes have the meaning given here. Where no end group is shown, it is not given here. [ ]: non-standard residue; d: D form. PEG8′ = non-peptide PEG linker of 8 ethylene glycol units

Key:
[1] = target: T1, human insulin receptor (Homo sapiens, UniProt P06213); assay: Insulin receptor competition binding assay (scintillation proximity)
T1 construct: expressed in transfected cells; plasma membrane fragments

[2] = target: T2, human IGF-1 receptor (Homo sapiens, UniProt P08069); assay: IGF-1 receptor competition binding assay (scintillation proximity); conditions: Table 9
T2 construct: expressed in transfected cells; plasma membrane fragments

[3] = target: IR-B (Homo sapiens, UniProt P06213); assay: In vitro activity at IR-B relative to native insulin; type: cell-based; conditions: for % Insulin Activity IR-B: Table 17
[4] = target: IR-A (Homo sapiens, UniProt P06213); assay: In vitro activity at IR-A relative to native insulin; type: cell-based
[5] = target: IGF-1 R (Homo sapiens, UniProt P08069); assay: In vitro activity at IGF-1 R relative to native insulin; type: cell-based; conditions: for % Insulin Activity IGF-1 R: Table 17
[6] = system: mice; assay: Comparative insulin tolerance test in mice; type: in vivo; conditions: result in words
Procedure: The activity of the compounds in vivo was also tested by administering the compounds to mice. Food was removed four hours prior to administering peptide to normal mice and withheld for the duration of the study. Glucose was measured just prior to administration of test compounds and at 1, 2, 3, 6 and 8, 12, 16, 20 and 24 hours after administration. […] FIGS. 29B and 29C provide data on blood glucose concentrations over 8 hours after administration of the listed analogs.
The compounds were tested at two different concentrations (27 nmol/kg and 90nmol/kg).
This single chain analog comprises a 20 kDa PEG linked to the side chain of the single lysine residue in the linking moiety (PEG8-K-PEG4) that joins the A chain and the B chain. […] FIGS. 33C and 33D show the blood glucose AUC24 hrs in mice administered Detemir and MIU-56, respectively.

Which results are given for `CC[C@H](C)[C@H](NC(=O)CN)C(=O)N[C@H](C(=O)N[C@@H](CC(=O)O)C(=O)N[C@@H](CCC(=O)O)C(=O)N[C@H]1CSSC[C@@H]2NC(=O)[C@H](CO)NC(=O)[C@H](CCCNC(=N)N)NC(=O)[C@H](Cc3ccccc3)NC(=O)[C@H](CSSC[C@H](NC(=O)[C@H](CC(C)C)NC(=O)[C@@H](NC(=O)[C@H](CCC(=O)O)NC(=O)[C@@H]3CCCN3C(=O)CN)[C@@H](C)O)C(=O)NCC(=O)N[C@@H](CO)C(=O)N[C@@H](Cc3c[nH]cn3)C(=O)N[C@@H](CC(C)C)C(=O)N[C@@H](C(C)C)C(=O)N[C@@H](CCC(=O)O)C(=O)N[C@@H](C)C(=O)N[C@@H](CC(C)C)C(=O)N[C@@H](Cc3ccc(O)cc3)C(=O)N[C@@H](CC(C)C)C(=O)N[C@@H](C(C)C)C(=O)N[C@H](C(=O)NCC(=O)N[C@@H](CC(=O)O)C(=O)N[C@@H](CCCNC(=N)N)C(=O)NCC(=O)N[C@@H](Cc3ccccc3)C(=O)N[C@@H](Cc3ccc(O)cc3)C(=O)N[C@@H](Cc3ccccc3)C(=O)N[C@@H](CC(N)=O)C(=O)N[C@@H](CCCCN)C(=O)N3CCC[C@H]3C(=O)N[C@H](C(N)=O)[C@@H](C)O)CSSC[C@@H](C(=O)N[C@@H](C)C(N)=O)NC(=O)[C@H](Cc3ccc(O)cc3)NC(=O)[C@H](CCSC)NC(=O)[C@H](CCC(=O)O)NC(=O)[C@H](CC(C)C)NC(=O)[C@H](CCCNC(=N)N)NC(=O)[C@H](CCCNC(=N)N)NC(=O)[C@H](CC(C)C)NC(=O)[C@H](CC(=O)O)NC2=O)NC1=O)C(C)C`?
Insulin Receptor % insulin (in test) ([1]; Table 9): 19.1%; Insulin Receptor % native insulin activity (0.6 nM) ([1]; Table 9): 37.7%; Ratio ([1]; Table 9, IGF-1 receptor IC50 over insulin receptor IC50): 22.6; IGF-1 Receptor % IGF-1 (in test) [2]: 0.3%

How did the “% of Insulin Activity” value ([1]; Table 8) turn out when `CC[C@H](C)[C@H](NC(=O)CNC(=O)[C@@H]1CCCN1C(=O)[C@H](C)N)C(=O)N[C@H](C(=O)N[C@@H](CC(=O)O)C(=O)N[C@@H](CCC(=O)O)C(=O)N[C@H]1CSSC[C@@H]2NC(=O)[C@H](CO)NC(=O)[C@H](CCCNC(=N)N)NC(=O)[C@H](Cc3ccccc3)NC(=O)[C@H](CSSC[C@H](NC(=O)[C@H](CC(C)C)NC(=O)[C@@H](NC(=O)[C@H](CCC(=O)O)NC(=O)[C@@H]3CCCN3C(=O)CN)[C@@H](C)O)C(=O)NCC(=O)N[C@@H](C)C(=O)N[C@@H](CCC(=O)O)C(=O)N[C@@H](CC(C)C)C(=O)N[C@@H](C(C)C)C(=O)N[C@@H](CC(=O)O)C(=O)N[C@@H](C)C(=O)N[C@@H](CC(C)C)C(=O)N[C@@H](Cc3ccc(O)cc3)C(=O)N[C@@H](CC(C)C)C(=O)N[C@@H](C(C)C)C(=O)N[C@H](C(=O)NCC(=O)N[C@@H](CC(=O)O)C(=O)N[C@@H](CCCNC(=N)N)C(=O)NCC(=O)N[C@@H](Cc3ccccc3)C(=O)N[C@@H](Cc3ccc(O)cc3)C(=O)N[C@@H](Cc3ccccc3)C(=O)N[C@@H](CC(N)=O)C(=O)N[C@@H](CCCCN)C(=O)N3CCC[C@H]3C(=O)N[C@H](C(N)=O)[C@@H](C)O)CSSC[C@@H](C(=O)N[C@@H](C)C(N)=O)NC(=O)[C@H](Cc3ccc(O)cc3)NC(=O)[C@H](CCSC)NC(=O)[C@H](CCC(=O)O)NC(=O)[C@H](CC(C)C)NC(=O)[C@H](CCCNC(=N)N)NC(=O)[C@H](CCCNC(=N)N)NC(=O)[C@H](CC(C)C)NC(=O)[C@H](CC(=O)O)NC2=O)NC1=O)C(C)C` [IGF1(Y^B16L^B17)(AlaPro)^A-1, 0] was run?
The value was 37.12%.

How did the IR-B ([3]; Table 19) turn out when “B1, A14-10K B^1(H5, 10Y16L17R29)29: A^1(H8K14N18, 21) (chain 1 GPEHLCGAHLVDALYLVCGDRGFYFNKR; chain 2 GIVDECCHRSCDLKRLENYCN) [di-10K-TC]” was run?
Its IR-B is 2.1%.

And the IR-A ([4]; Table 19)?
Its IR-A is 6.4%.

Which IR-B ([3]; Table 19) does the source give for “B1, A14-10K B^1(H5, 10Y16L17R29)30-C^1des9-12-A^1(H8, K14, N18, 21) (GPEHLCGAHLVDALYLVCGDRGFYFNKRTGYGSSSRRGIVDECCHRSCDLKRLENYCN) [MIU-79]” here?
The IR-B was 0.2%.

What about the IR-A ([4]; Table 19) of the same molecule?
The IR-A was 1.7%.

For “B1-20K B^1(H5, 10Y16L17K29)29-A^1(H8N18, 21) [MIU-77]”, which IR-A [4] is on record?
The IR-A was 0.1%.

And the “activity at the insulin type-A receptor on addition of a 20 kDa PEG” value [4]?
Its value is about 100 fold.

“B1-20K B^1(H5, 10Y16L17K29)29: A^1(H8N18, 21) [MIU-78]” was tested. Which IR-B [3] did it give?
Its IR-B is 3.2%.

What about the IR-A [4] of the same molecule?
The IR-A was 8.2%.

For “B^1(A5H10Y16L17)25-C^1-A^1(H8N18N21) [Ala, B5]”, which IR-B ([3]; Table 18) is on record?
The IR-B was 5.7%.

And the “IGF-1 R” value ([5]; Table 18)?
The value was 2.5%.

Which “ability to reduce and sustain low blood glucose” value [6] does the source give for “B^1(C16-K0,H5,H10,Y16,L17)25a: A^1(N18,N21) [MIU-36]” here?
The value was “more basal and sustained lowered glucose levels relative to native insulin”.

What does the source list for “B^1(H5, 10Y16L17)25-C^1-A^1(T8N18, 21) (GPEHLCGAHLVDALYLVCGDRGFYGYGSSSRRAPQTGIVDECCTRSCDLRRLENYCN) [Thr, A8]”?
IR-B ([3]; Table 18): 8.4%; IR-A ([4]; Table 18): 20.4%; IGF-1 R ([5]; Table 18): 3.7%

Which results are given for “B^1(H5, 10Y16L17A24)25-C^1-A^1(H8N18, N21) [Ala, B24]”?
IR-B [3]: 0.4%; IR-A [4]: 0.1%; IGF-1 R [5]: 0.3%

Which IR-A ([4]; Table 19) does the source give for “B^1(H5, 10Y16L17K29)29-A^1(H8, N18, 21) [DP3(SC)]” here?
The IR-A was 0.03%.

With “B^1(H5, 10Y16L17K29)29: A^1(H8, N18, 21) [DP3(TC)]” as the molecule, how does the IR-B ([3]; Table 19) read?
Its IR-B is 33.1%.

And the IR-A ([4]; Table 19)?
The IR-A was 159.8%.

With “B^1(H5, 10Y16L17R29)30-C^1des9-12-A^1(H8, K14, N18, 21) (GPEHLCGAHLVDALYLVCGDRGFYFNKRTGYGSSSRRGIVDECCHRSCDLKRLENYCN) [DP8Mut3KA14]” as the molecule, how does the IR-B ([3]; Table 19) read?
The IR-B was 12.6%.

And the IR-A ([4]; Table 19)?
Its IR-A is 132.2%.

With “B^1(H5, 10Y16L17R29)30-C^1des9-12-A^1(H8, N18, 21) (GPEHLCGAHLVDALYLVCGDRGFYFNKRTGYGSSSRRGIVDECCHRSCDLRRLENYCN) [MIU-43]” as the molecule, how does the IR-B ([3]; Table 19) read?
Its IR-B is 16.7%.

And the IR-A ([4]; Table 19)?
Its IR-A is 97.5%.

What about the IGF-1 R ([5]; Table 19) of the same molecule?
The IGF-1 R was 14.2%.

“B^1(H5,H10,Y16,L17)25-C^1-A^1(H8,N18,N21) (GPEHLCGAHLVDALYLVCGDRGFYGYGSSSRRAPQTGIVDECCHRSCDLRRLENYCN) [MIU-35]” was tested. Which IR-B ([3]; Table 18) did it give?
The IR-B was 17.4%.

And the IR-A ([4]; Table 18)?
Its IR-A is 61.4%.

What about the “% Insulin Activity IGF-1 R” value [5] of the same molecule?
Its value is 3.2%.

And the “IGF-1 R” value ([5]; Table 18)?
Its value is 3.2%.

“B^1(H5,H10,Y16,L17)25a: A^1(H8,rEC16-K14,N18,N21) [MIU-41]” was tested. Which “ability to reduce and sustain low blood glucose” value [6] did it give?
The value was “more basal and sustained lowered glucose levels relative to native insulin”.

Which “ability to reduce and sustain low blood glucose” value [6] does the source give for “B^1(H5,H10,Y16,L17,C16rE-K22)25a: A^1(N18,N21) [MIU-37]” here?
Its value is “more basal and sustained lowered glucose levels relative to native insulin”.

For “B^1(H5,Y16,L17)25-C^1(K8)-A^1(K14, N18,21) (GPEHLCGAELVDALYLVCGDRGFYGYGSSSRKAPQTGIVDECCFRSCDLKRLENYCN) [MIU-69, two 10K PEG chains, at the N-terminus and at amino acid A14]”, which “% Insulin Activity IGF-1 R” value [5] is on record?
The value was under 0.1%.

For “B^1(H5,Y16,L17)25-C^1(K8)-A^1(N18,21) (GPEHLCGAELVDALYLVCGDRGFYGYGSSSRKAPQTGIVDECCFRSCDLRRLENYCN) [MIU-67, two 10K PEG chains, at the N-terminus and at position C8]”, which “ability to reduce and sustain low blood glucose” value [6] is on record?
The value was “roughly equivalent to MIU-59 administered at 40 nmol/kg”.

What about the “% Insulin Activity IR-B” value [3] of the same molecule?
Its value is 0.1%.

And the “% Insulin Activity IGF-1 R” value [5]?
Its value is under 0.1%.

With “B^1(H5,Y16,L17, K22)25-C^1(K8)-A^1(N18,21) (GPEHLCGAELVDALYLVCGDKGFYGYGSSSRKAPQTGIVDECCFRSCDLRRLENYCN) [MIU-68, two 10K PEG chains, at the N-terminus and at amino acid B22]” as the molecule, how does the “% Insulin Activity IR-B” value [3] read?
The value was 0.1%.

What about the “% Insulin Activity IGF-1 R” value [5] of the same molecule?
The value was under 0.1%.

For “C8-PEG20K B^1(H5, Y16, L17)25-PEG8-K-PEG4-A^1(N18, N21) (GPEHLCGAELVDALYLVCGDRGFY[PEG8′]KGIVDECCFRSCDLRRLENYCN; not fully specified (some residues, bridges); ends and bridges not checked) [MIU-56]”, which “ability to reduce and sustain low blood glucose” value [6] is on record?
Its value is “sustained duration of action for 24 hours”.

For “GE5W-B^1(A5H10Y16L17)25-C^1-A^1(H8N18N21) [GE5W-Ala, B5]”, which IR-B ([3]; Table 18) is on record?
The IR-B was 2.3%.

What about the IR-A ([4]; Table 18) of the same molecule?
Its IR-A is 8.6%.

What about the “IGF-1 R” value ([5]; Table 18) of the same molecule?
The value was 0.3%.

B1: GE5W-B^1(H5, 10Y16L17)25-C^1-A^1(A1H8N18, 21) (peptide)
chain: GEEEEEWGPEHLCGAHLVDALYLVCGDRGFYGYGSSSRRAPQTAIVDECCHRSCDLRRLENYCN
Which results are given for B1?
IR-B ([3]; Table 18): 0.7%; IR-A ([4]; Table 18): 2.1%; IGF-1 R ([5]; Table 18): 0.5%
